Measured values reported in article PMC7665585, “Antidepressive effect of an inward rectifier K^+ channel blocker peptide, tertiapin-RQ” (PLoS ONE, 2020).
Bridge positions count the residues as written; N and C are the ends. Peptide text beside a SMILES is read from it.

Biological target: T1, rat ROMK (Rattus norvegicus, UniProt P35560)
T1 construct: expressed in transfected cells; host or cells: 293T cell line 208-4 (lentiviral transduction, GFP coexpressed)
T1 sequence (P35560 1-391): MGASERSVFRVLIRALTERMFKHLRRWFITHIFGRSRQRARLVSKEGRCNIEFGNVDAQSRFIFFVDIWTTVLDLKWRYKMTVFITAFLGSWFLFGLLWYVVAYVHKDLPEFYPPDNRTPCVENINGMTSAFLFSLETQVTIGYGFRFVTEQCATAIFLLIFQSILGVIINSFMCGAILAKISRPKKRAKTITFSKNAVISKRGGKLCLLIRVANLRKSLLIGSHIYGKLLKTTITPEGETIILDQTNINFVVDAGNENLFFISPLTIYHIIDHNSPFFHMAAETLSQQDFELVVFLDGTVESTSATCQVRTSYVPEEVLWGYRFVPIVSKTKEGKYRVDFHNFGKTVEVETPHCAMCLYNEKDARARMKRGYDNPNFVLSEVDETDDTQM
Test: Whole-cell patch-clamp of ROMK currents in 208–4 cells
Assay type: cell-based
Conditions: blockade at 1 μM estimated from fitted Hill curve (four parameters), whole-cell conductance, n = 3–6, read-out: Activity (ROMK channel blocking activity, percentage of blockade at 1 μM)
Excerpt: The cDNAs for rat ROMK and mouse GIRK1, 2, and 4 were generously donated by Drs Mikio Hayashi (Kansai Medical University) and David Weaver (Vanderbilt University). The ROMK channels were stably expressed by a cell line, 208–4, which was transduced with lentiviral vectors coexpressing the channel and green fluorescent protein (GFP) as described previously. The GIRK genes, cloned in a pCMV6 plasmid (Origene Technologies Inc, Rockville, MD), were transiently expressed in 293T cells with calcium phosphate transfection. GIRK channel currents were recorded 24 h after transfection.
Cells grown on small cover glasses (3 × 18 mm) were placed in a recording chamber. Whole-cell currents were recorded in Tyrode solution using an Axopatch 200B amplifier (Axon Instruments, Foster City, CA) at 25°C. Tyrode solution contained (in mM): NaCl 140, KCl 5.4, NaH2PO4 0.33, CaCl2 2, MgCl2 1, HEPES 5, and glucose 5.5 (pH 7.4 adjusted with NaOH). High K^+ Tyrode solution (KCL 50 mM, NaCl 95 mM, and others were the same as standard Tyrode solution) was used for the recording of GIRK channels. Patch pipettes pulled from borosilicate glass (Narishige, Tokyo, Japan) were filled with an internal solution containing (in mM): K-aspartate 66, KCl 71.5, KH2PO4 1, EGTA 5, HEPES 5, and MgATP 3 (pH 7.4 adjusted with KOH). Recordings were digitized at 10 kHz, and low-pass filtered at 2 kHz. ROMK, Kir2.1, and GIRK currents were evoked with step pulses of 400 msec from -150 mV to 10 mV in 10 mV increments from a holding potential of -70 mV. Whole-cell currents were recorded 60 sec after the peptide application and those from 100 to 300 msec of the step pulses were averaged. Liquid junction potential or capacitive transient was not corrected or compensated. Whole-cell conductance was calculated as the slope of the current-voltage (I-V) relationship from -140 mV to -100 mV and normalized to the initial value (0 μM TPN), in which BaCl2-resistant current was subtracted and indicted as a percentage.

SMILES	inhibition at 1 µM [%]
CC[C@H](C)[C@@H]1NC(=O)[C@H](CCCNC(=N)N)NC(=O)[C@H](CC(N)=O)NC(=O)[C@@H]2CSSC[C@@H](C(=O)NCC(=O)N[C@@H](CCCCN)C(=O)N[C@@H](CCCCN)C(N)=O)NC(=O)[C@H](CCCCN)NC(=O)[C@H](CCCCN)NC(=O)[C@H](Cc3c[nH]c4ccccc34)NC(=O)[C@H](CSSC[C@H](NC(=O)[C@H](CC(C)C)NC(=O)[C@H](C)N)C(=O)N[C@@H](CC(N)=O)C(=O)N2)NC(=O)[C@H](CCC(N)=O)NC(=O)[C@H](Cc2c[nH]cn2)NC(=O)[C@@H]2CCCN2C1=O [Peptide 52, TPN-RQ(Δ8R/ΔI9)] (H-ALCNCNRIPHQCWKKCGKK-NH2; disulfide 3-12, 5-16)	< 20
CC(C)C[C@H](NC(=O)[C@H](C)N)C(=O)N[C@H]1CSSC[C@@H]2NC(=O)[C@H](CCC(N)=O)NC(=O)[C@H](Cc3c[nH]cn3)NC(=O)[C@@H]3CCCN3C(=O)[C@H](CCCNC(=N)N)NC(=O)[C@H](CCCNC(=N)N)NC(=O)[C@H](CC(N)=O)NC(=O)[C@H](CSSC[C@@H](C(=O)NCC(=O)N[C@@H](CCCCN)C(=O)N[C@@H](CCCCN)C(N)=O)NC(=O)[C@H](CCCCN)NC(=O)[C@H](CCCCN)NC(=O)[C@H](Cc3c[nH]c4ccccc34)NC2=O)NC(=O)[C@H](CC(N)=O)NC1=O [Peptide 53, TPN-RQ(ΔI9/ΔI10)] (H-ALCNCNRRPHQCWKKCGKK-NH2; disulfide 3-12, 5-16)	< 20
CC[C@H](C)[C@@H]1NC(=O)[C@H](CCCNC(=N)N)NC(=O)[C@H](CCCNC(=N)N)NC(=O)[C@H](CC(N)=O)NC(=O)[C@@H]2CSSC[C@@H](C(=O)NCC(=O)N[C@@H](CCCCN)C(=O)N[C@@H](CCCCN)C(N)=O)NC(=O)[C@H](CCCCN)NC(=O)[C@H](CCCCN)NC(=O)[C@H](Cc3c[nH]c4ccccc34)NC(=O)[C@H](CSSC[C@H](NC(=O)[C@H](C)NC(=O)[C@H](C)N)C(=O)N[C@@H](CC(N)=O)C(=O)N2)NC(=O)[C@H](CCC(N)=O)NC(=O)[C@H](Cc2c[nH]cn2)NC(=O)[C@@H]2CCCN2C(=O)[C@H]([C@@H](C)CC)NC1=O [Peptide 55, TPN-RQ(L2A)] (H-AACNCNRRIIPHQCWKKCGKK-NH2; disulfide 3-14, 5-18)	60 to 80
CC[C@H](C)[C@@H]1NC(=O)[C@H](CCCNC(=N)N)NC(=O)[C@H](CCCNC(=N)N)NC(=O)[C@H](CC(N)=O)NC(=O)[C@@H]2CSSC[C@@H](C(=O)NCC(=O)N[C@@H](CCCCN)C(=O)N[C@@H](CCCCN)C(N)=O)NC(=O)[C@H](CCCCN)NC(=O)[C@H](CCCCN)NC(=O)[C@H](Cc3c[nH]c4ccccc34)NC(=O)[C@H](CSSC[C@H](NC(=O)[C@H](CC(C)C)NC(=O)[C@H](C)N)C(=O)N[C@@H](C)C(=O)N2)NC(=O)[C@H](CCC(N)=O)NC(=O)[C@H](Cc2c[nH]cn2)NC(=O)[C@@H]2CCCN2C(=O)[C@H]([C@@H](C)CC)NC1=O [Peptide 56, TPN-RQ(N4A)] (H-ALCACNRRIIPHQCWKKCGKK-NH2; disulfide 3-14, 5-18)	60 to 80
CC[C@H](C)[C@@H]1NC(=O)[C@H](CCCNC(=N)N)NC(=O)[C@H](CCCNC(=N)N)NC(=O)[C@H](C)NC(=O)[C@@H]2CSSC[C@@H](C(=O)NCC(=O)N[C@@H](CCCCN)C(=O)N[C@@H](CCCCN)C(N)=O)NC(=O)[C@H](CCCCN)NC(=O)[C@H](CCCCN)NC(=O)[C@H](Cc3c[nH]c4ccccc34)NC(=O)[C@H](CSSC[C@H](NC(=O)[C@H](CC(C)C)NC(=O)[C@H](C)N)C(=O)N[C@@H](CC(N)=O)C(=O)N2)NC(=O)[C@H](CCC(N)=O)NC(=O)[C@H](Cc2c[nH]cn2)NC(=O)[C@@H]2CCCN2C(=O)[C@H]([C@@H](C)CC)NC1=O [Peptide 57, TPN-RQ(N6A)] (H-ALCNCARRIIPHQCWKKCGKK-NH2; disulfide 3-14, 5-18)	60 to 80
